Assay results published in ChEMBL document CHEMBL1201862, “PubChem BioAssay data set” (2004).
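In this assay, cells in 96-well plates receive the compound at five concentrations for 48 hours. Endpoints are linearly interpolated between the surrounding concentrations. The concentration for 50% growth inhibition is given as GI50.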 Active and inactive are the calls of the source. Rule as the data show it: active = GI50 up to about 1.1 µM and inactive = higher.

Legend:
Test in all cases: inhibition of tumour cell growth, NCI panel, 48 h
[1] = system: 786-0
[2] = system: A498
[3] = system: A549
[4] = system: ACHN
[5] = system: BT-549
[6] = system: CAKI-1
[7] = system: CCRF-CEM
[8] = system: COLO 205
[9] = system: DU-145
[10] = system: EKVX
[11] = system: HCC 2998
[12] = system: HCT-116
[13] = system: HCT-15
[14] = system: HL-60
[15] = system: HOP-62
[16] = system: HOP-92
[17] = system: HT-29
[18] = system: Hs-578T
[19] = system: IGROV-1
[20] = system: K562
[21] = system: KM12
[22] = system: LOX IMVI
[23] = system: M14
[24] = system: MCF7
[25] = system: MDA-MB-231
[26] = system: MDA-MB-435
[27] = system: MOLT-4
[28] = system: Malme-3M
[29] = system: NCI-H226
[30] = system: NCI-H23
[31] = system: NCI-H460
[32] = system: NCI-H522
[33] = system: NCI/ADR-RES
[34] = system: OVCAR-3
[35] = system: OVCAR-4
[36] = system: OVCAR-8
[37] = system: RPMI-8226
[38] = system: RXF 393
[39] = system: SF-268
[40] = system: SF-295
[41] = system: SF-539
[42] = system: SK-MEL-28
[43] = system: SK-MEL-2
[44] = system: SK-MEL-5
[45] = system: SK-OV-3
[46] = system: SNB-19
[47] = system: SNB-75
[48] = system: SR
[49] = system: SW-620
[50] = system: TK-10
[51] = system: U-251
[52] = system: UACC-257
[53] = system: UACC-62
[54] = system: UO-31

Compound: Cc1cnc2[nH]c(-c3cccc(Cl)c3)cc(=O)c2c1
- GI50 [1]: 54.7 nM (active)
- GI50 [2]: 55.6 nM (active)
- GI50 [3]: 67.6 nM (active)
- GI50 [4]: 507 nM (active)
- GI50 [5]: 2540 nM (inactive)
- GI50 [6]: 49.5 nM (active)
- GI50 [7]: 42.5 nM (active)
- GI50 [8]: 80.7 nM (active)
- GI50 [9]: 154 nM (active)
- GI50 [10]: > 50100 nM (inactive)
- GI50 [11]: 101 nM (active)
- GI50 [12]: 36.1 nM (active)
- GI50 [13]: 117 nM
- GI50 [14]: < 17.6 nM (active)
- GI50 [15]: 28.2 nM (active)
- GI50 [16]: > 100000 nM (inactive)
- GI50 [17]: 39.2 nM (active)
- GI50 [18]: 26.6 nM (active)
- GI50 [19]: 292 nM (active)
- GI50 [20]: < 15.1 nM (active)
- GI50 [21]: 102 nM (active)
- GI50 [22]: 43.8 nM (active)
- GI50 [23]: 40.6 nM (active)
- GI50 [24]: 381 nM (active)
- GI50 [25]: 56.9 nM (active)
- GI50 [26]: < 10 nM (active)
- GI50 [27]: 33.8 nM (active)
- GI50 [28]: 48 nM (active)
- GI50 [29]: 70.8 nM (active)
- GI50 [30]: 375 nM (active)
- GI50 [31]: 37.8 nM (active)
- GI50 [32]: 29.4 nM (active)
- GI50 [33]: 54 nM (active)
- GI50 [34]: 21.6 nM (active)
- GI50 [35]: > 100000 nM (inactive)
- GI50 [36]: 159 nM (active)
- GI50 [37]: < 20.6 nM (active)
- GI50 [38]: 36.7 nM (active)
- GI50 [39]: 79.6 nM (active)
- GI50 [40]: 16.9 nM (active)
- GI50 [41]: 19.4 nM (active)
- GI50 [42]: 315 nM (active)
- GI50 [43]: 88.9 nM (active)
- GI50 [44]: 46.1 nM (active)
- GI50 [45]: 50.8 nM (active)
- GI50 [46]: 76.9 nM (active)
- GI50 [47]: 37.8 nM (active)
- GI50 [48]: 34.5 nM (active)
- GI50 [49]: 11.9 nM (active)
- GI50 [50]: 22800 nM (inactive)
- GI50 [51]: 48.4 nM (active)
- GI50 [52]: 1050 nM (active)
- GI50 [53]: 22.4 nM (active)
- GI50 [54]: 1700 nM (inactive)
